Results on one compound are retold here after US20090078651A1, “Mung Water Treatment Method” (ReNew Systems, Inc., priority 2007, published 2009).

For data set [1], the system named is bacteria colonies from mung water. Description: Most probable number plates of treated mung water samples (bacteria colony counts). It is filed as cell-based. To be noted: for colonies counted, Most Probable Number Plates: T = 24. The method, then:
On 27 Sep. 2006 an experimental was conducted to compare the effects of treating mung water with DBNPA only to the effects of treating mung water with both DBNPA and Odor-Out®. The experiment was set-up in 250 ml baffled shake flasks with dispo plugs. The Odor Out® solutions used in this experiment were “aged”, having been prepared on 12 Sep. 2006 in tap water. The DBNPA solution was made up just prior to making additions to the flasks and was made using distilled water. After mung water samples and DBNPA and Odor Out® treatment additives were added, the flasks were placed in an incubation shaker set at 30 degrees C. and shaken at 100 rpm. The experiment was started at 2:30 p.m. on 27 Sep. 2006. The flasks were shaken for 2½ hours at which point the shaker was turned off and the flasks were allowed to incubate in a stationary position overnight. The next day, on 28 Sep. 2006 from 11 a.m.-2 p.m., serial dilutions were made up and most probable number plates were prepared. The plates were incubated overnight at 30 degrees C. On 29 Sep.

For data set [2] the following is noted: designed property; cited from earlier work.

Turning to `N#CC(Br)(Br)C(N)=O` [DBNPA, 2.2-dibromo-3-nitrilopropionamide], the “colonies counted, Most Probable Number Plates” value in data set [1] (Straight, DBNPA 0.05% 10 μl in 50 ml mung water, no Odor Out (1a)) is given as “TNC (the colonies on the plates were too numerous to count (>300))”; in data set [1] (dilution 10^−1, DBNPA 0.05% 10 μl in 50 ml mung water, no Odor Out (1a)) it was “TNC (the colonies on the plates were too numerous to count (>300))”; in data set [1] (dilution 10^−2, DBNPA only (1a)), 5; in data set [1] (dilution 10^−3, DBNPA only (1a)), 1; in data set [1] (dilution 10^−4, DBNPA only (1a)), 0; in data set [1] (dilution 10^−5, DBNPA only (1a)), 0. Besides, the “colonies counted, Most Probable Number Plates” value in data set [1] (dilution 10^−6, DBNPA only (1a)) was determined as 0; in data set [1] (dilution 10^−7, DBNPA only (1a)), 0. Also, the “bacteria colony counts, change” value in data set [1] (mung water samples treated only with DBNPA) is on record as “moderate reductions”. Further, the “time to biodegrade after introduction into a recirculating water system” value in data set [2] was no more than 48 h.
